{"source": "paper PMC7567642", "about": "“A Fully Integrated Assay Panel for Early Drug Metabolism and Pharmacokinetics Profiling” (Assay and Drug Development Technologies, 2020)", "key": {"[1]": {"parameters": "method as in PMID 19429424", "conditions": "published dried DMSO assays; cited from earlier work"}, "[2]": {"conditions": "QC control, literature value; cited from earlier work"}, "human plasma": {"tested_on": "human plasma", "conditions": "cited from earlier work"}, "[3]": {"assay": "Automated shake-flask logD7.4 assay (1-octanol/phosphate buffer pH 7.4)", "type": "physicochemical", "description": "The assay starts with transfer of individual compound solutions into pools of 10 compounds, alongside two pool QCs, using a Hamilton STARplus liquid handling workstation. […] This step combines 4 μL each of 10 mM compound solutions to a total of 48 μL in an intermediate plate (pool QCs are at 5 mM each). These and subsequent transfers as outlined below involve fresh pipetting tips to eliminate risks of cross-contamination.\nThe next assay step involves transfer of 500 μL octanol from a tray to an empty deep well plate, to which 10 μL of each pool is subsequently transferred and thoroughly mixed by repetitive aspiration and dispensing. An octanol-saturated phosphate buffer at pH 7.4 is then added (500 μL) followed by sealing of the content with a PP-based lid. Vigorous shaking of the content is achieved through vortexing for 30 s and equilibration of compound between the two phases is further established through a 3 h incubation on a plate shaker.\nFollowing equilibration, the deep well plate is centrifuged to ensure separation between phases and the plate is next moved back to the Hamilton platform for sampling of 5 μL from the octanol phase. The sample is placed in a first dilution plate together with 495 μL of an AcN:H2O mix (1:2) containing FA (0.1%) and verapamil as internal standard (IS). The acidified and IS containing AcN solution, which is common for the logD7.4 and Sol assays, is referred to as the IS solution. The content is thoroughly mixed and next serially diluted to four additional plates with 10-fold dilutions to maximize the ability to detect weakly concentrated solutions and afford investigations of linearity in response.\nAfter sampling, the remaining octanol is removed from the deep well plate through careful pipetting, followed by sampling from the aqueous buffer. […]\nThe plates are next brought to the MS instrumentation (Xevo TQS; Waters) and read out using the established UPLC-MS/MS methods. […]"}, "[4]": {"biological_target": "Ataxia Telangiectasia Mutated (ATM) kinase (Homo sapiens, UniProt Q13315)", "sequence (Q13315 whole entry, species assumed, change not shown)": "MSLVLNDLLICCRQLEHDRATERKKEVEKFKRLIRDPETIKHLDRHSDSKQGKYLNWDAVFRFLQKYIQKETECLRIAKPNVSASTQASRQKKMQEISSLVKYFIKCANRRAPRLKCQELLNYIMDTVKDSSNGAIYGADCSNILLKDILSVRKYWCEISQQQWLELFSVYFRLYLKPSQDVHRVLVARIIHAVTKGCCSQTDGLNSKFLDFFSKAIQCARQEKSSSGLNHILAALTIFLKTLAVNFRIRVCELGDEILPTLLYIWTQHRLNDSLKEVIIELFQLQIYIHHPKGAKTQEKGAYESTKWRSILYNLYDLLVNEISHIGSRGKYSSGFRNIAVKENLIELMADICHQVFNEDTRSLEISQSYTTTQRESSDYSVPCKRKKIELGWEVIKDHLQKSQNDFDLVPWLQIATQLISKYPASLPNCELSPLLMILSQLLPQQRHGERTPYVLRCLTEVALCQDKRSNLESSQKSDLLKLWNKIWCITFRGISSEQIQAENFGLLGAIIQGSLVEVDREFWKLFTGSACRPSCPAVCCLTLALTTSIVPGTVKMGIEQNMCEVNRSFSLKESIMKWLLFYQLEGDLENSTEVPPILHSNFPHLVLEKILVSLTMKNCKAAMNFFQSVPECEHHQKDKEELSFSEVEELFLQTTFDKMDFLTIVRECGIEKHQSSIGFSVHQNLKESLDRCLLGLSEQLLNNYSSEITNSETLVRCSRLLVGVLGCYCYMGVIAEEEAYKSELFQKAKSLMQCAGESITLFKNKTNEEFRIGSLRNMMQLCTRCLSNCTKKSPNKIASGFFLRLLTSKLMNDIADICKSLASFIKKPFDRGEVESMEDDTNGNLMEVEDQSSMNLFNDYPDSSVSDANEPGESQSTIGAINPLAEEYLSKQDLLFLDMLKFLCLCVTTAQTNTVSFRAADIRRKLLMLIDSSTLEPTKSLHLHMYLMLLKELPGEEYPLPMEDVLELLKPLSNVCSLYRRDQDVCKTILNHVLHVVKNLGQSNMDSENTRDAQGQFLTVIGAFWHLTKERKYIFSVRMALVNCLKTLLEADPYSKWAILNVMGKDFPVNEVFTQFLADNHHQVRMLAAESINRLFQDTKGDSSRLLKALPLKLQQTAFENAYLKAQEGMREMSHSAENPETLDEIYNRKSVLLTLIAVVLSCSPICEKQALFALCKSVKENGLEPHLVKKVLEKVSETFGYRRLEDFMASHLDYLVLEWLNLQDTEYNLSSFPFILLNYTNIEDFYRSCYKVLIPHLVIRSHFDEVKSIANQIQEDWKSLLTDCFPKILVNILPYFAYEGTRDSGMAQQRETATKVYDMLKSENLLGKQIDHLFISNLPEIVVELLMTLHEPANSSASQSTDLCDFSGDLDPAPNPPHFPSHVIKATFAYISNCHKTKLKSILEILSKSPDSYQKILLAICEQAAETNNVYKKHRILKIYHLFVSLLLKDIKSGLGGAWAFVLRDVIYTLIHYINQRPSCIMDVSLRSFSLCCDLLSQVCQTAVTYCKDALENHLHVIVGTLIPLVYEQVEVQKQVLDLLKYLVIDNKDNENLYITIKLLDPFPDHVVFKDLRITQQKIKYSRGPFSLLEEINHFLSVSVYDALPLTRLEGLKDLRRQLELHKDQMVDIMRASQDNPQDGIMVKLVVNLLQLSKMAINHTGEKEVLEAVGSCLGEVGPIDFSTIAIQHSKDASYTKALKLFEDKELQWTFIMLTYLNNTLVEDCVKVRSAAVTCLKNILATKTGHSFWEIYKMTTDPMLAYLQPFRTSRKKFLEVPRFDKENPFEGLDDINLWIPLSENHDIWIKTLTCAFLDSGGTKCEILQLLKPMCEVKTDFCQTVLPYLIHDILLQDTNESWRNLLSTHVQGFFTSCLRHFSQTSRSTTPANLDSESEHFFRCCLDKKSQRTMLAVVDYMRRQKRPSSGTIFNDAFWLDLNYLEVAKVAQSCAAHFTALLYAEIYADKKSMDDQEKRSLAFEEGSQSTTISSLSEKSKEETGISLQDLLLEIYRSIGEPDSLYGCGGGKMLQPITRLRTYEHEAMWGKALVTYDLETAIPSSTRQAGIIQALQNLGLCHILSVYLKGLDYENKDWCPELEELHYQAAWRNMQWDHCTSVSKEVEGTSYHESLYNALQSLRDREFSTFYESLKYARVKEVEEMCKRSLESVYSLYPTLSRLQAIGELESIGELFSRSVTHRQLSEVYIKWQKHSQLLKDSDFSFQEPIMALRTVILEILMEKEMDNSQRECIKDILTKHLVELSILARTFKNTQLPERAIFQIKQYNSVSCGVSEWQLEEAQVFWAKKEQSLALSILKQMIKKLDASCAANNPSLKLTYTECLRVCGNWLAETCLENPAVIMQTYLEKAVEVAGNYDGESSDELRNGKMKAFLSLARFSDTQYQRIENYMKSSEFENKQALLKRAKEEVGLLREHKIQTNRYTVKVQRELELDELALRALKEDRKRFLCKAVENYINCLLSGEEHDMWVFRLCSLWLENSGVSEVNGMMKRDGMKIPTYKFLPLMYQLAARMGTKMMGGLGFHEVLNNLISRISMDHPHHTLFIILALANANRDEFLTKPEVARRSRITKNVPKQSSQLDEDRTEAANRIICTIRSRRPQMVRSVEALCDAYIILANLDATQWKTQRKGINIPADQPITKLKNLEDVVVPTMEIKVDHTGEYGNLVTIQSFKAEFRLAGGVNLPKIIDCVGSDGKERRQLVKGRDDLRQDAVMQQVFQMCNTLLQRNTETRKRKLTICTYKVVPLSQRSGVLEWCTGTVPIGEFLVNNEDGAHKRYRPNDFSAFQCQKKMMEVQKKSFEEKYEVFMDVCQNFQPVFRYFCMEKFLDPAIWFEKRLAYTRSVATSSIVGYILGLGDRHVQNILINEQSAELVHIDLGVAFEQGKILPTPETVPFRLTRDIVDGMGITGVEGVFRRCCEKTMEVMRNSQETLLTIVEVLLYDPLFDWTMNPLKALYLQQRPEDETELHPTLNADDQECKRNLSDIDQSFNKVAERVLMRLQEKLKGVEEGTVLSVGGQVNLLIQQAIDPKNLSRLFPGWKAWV", "conditions": "ATM inhibitor project"}, "[5]": {"assay": "Dried DMSO solubility assay (Sol), phosphate buffer pH 7.4", "type": "physicochemical", "conditions": "ATM inhibitor project", "description": "Unlike the logD7.4 assay compounds are not pooled, but instead 50 μL of individual DMSO stock solutions are transferred to glass vials kept in a 3D printed rack that facilitates subsequent liquid transfers using a 96-well pipetting head on the Hamilton STARplus platform. There is no pool QC in the Sol workflow, instead this is replaced with the inclusion of three QCs, the positioning of which is randomized for each week. Solvent is evaporated and the dried compounds are resolubilized in 500 μL of aqueous phosphate buffer at pH 7.4.\nIndividual Stir Stixs are added to each glass vial using a drop dispenser from V&P Scientific, Inc., a rubber mat is used to seal the vials, and samples are then equilibrated under mixing for 20–24 h. […]\nThe process of centrifugation and transfer is repeated to remove any remaining debris, except that the 20 μL supernatant transfer combines sampling and pooling of 10 samples to a pool plate with 200 μL of an IS solution (same as in logD7.4). […] Finally, sample and standard plates are sealed and read out, analyzed, and qualified as described for the logD7.4 assay. Calculated solubility values (in μM) are exported into our internal database ensuring global availability to users."}}, "note": "Like-named read-outs stand apart in the source and are kept apart here.", "data": [{"smiles": "O=C1NC(=O)C(c2ccccc2)(c2ccccc2)N1", "note": "[phenytoin, Phenytoin]", "values": [{"measurement": "solubility", "setting": "[1]", "result": 86, "unit": "µM"}]}, {"smiles": "CN(C)CCCN1c2ccccc2Sc2ccc(Cl)cc21", "note": "[chlorpromazine, Chlorpromazine]", "values": [{"measurement": "solubility", "setting": "[1]", "result": 450, "unit": "µM"}]}, {"smiles": "COc1ccc(CCN2CCC(Nc3nc4ccccc4n3Cc3ccc(F)cc3)CC2)cc1", "note": "[astemizole, Astemizole]", "values": [{"measurement": "solubility", "setting": "[1]", "result": 2.9, "unit": "µM"}]}, {"smiles": "CN(C)CCC=C1c2ccccc2C=Cc2ccccc21", "note": "[cyclobenzaprine, Cyclobenzaprine]", "values": [{"measurement": "logD7.4", "setting": "[2]", "result": 2.8}]}, {"smiles": "COCCc1ccc(OCC(O)CNC(C)C)cc1", "note": "(centres unmarked) [metoprolol, Metoprolol]", "values": [{"measurement": "fu (fraction unbound)", "setting": "human plasma", "result": "~85", "unit": "%"}]}, {"smiles": "CC(C)n1c(=O)n(C)c2cnc3cc(F)c(-c4ccc(OCCCN5CCCCC5)nc4)cc3c21", "values": [{"measurement": "logD at 3 h", "setting": "[3]; pH 7.4, ATM inhibitor project, DMPK Wave 1 panel", "result": 2.7}]}, {"smiles": "CC(=O)CC(c1ccccc1)c1c(O)c2ccccc2oc1=O", "note": "(centres unmarked) [warfarin, Warfarin]", "values": [{"measurement": "fu (fraction unbound)", "setting": "human plasma", "result": "~1", "unit": "%"}]}, {"smiles": "CCC(CC)CNc1c(C(N)=O)cnc2ccc(C#N)cc12", "note": "[initial starting point]", "values": [{"measurement": "potency on the target protein (in words)", "setting": "[4]", "result": "μM potency"}, {"measurement": "solubility (in words)", "setting": "[5]", "result": "low μM solubility"}, {"measurement": "logD7.4", "setting": "[3]; ATM inhibitor project, DMPK Wave 1 panel", "result": 3.5}]}, {"smiles": "COC(=O)C1=C(C)NC(C)=C(C(=O)OCCN(C)Cc2ccccc2)C1c1cccc([N+](=O)[O-])c1", "note": "(centres unmarked) [nicardipine, Nicardipine]", "values": [{"measurement": "logD at 3 h", "setting": "[3]; 1-octanol/phosphate buffer pH 7.4, pH 7.4, QC control, in-house data", "result": 4.5}]}]}
